From article PMC11404609, “Gut microbiota-mediated C-sulfonate metabolism impairs the bioavailability and anti-cholestatic efficacy of andrographolide” (Gut Microbes, 2024)
Several values for one entry are separate records, joined by “and”; a condition that tells them apart may be missing. Equal entries are not always repeated.

How the values were obtained:
[1] = Plasma pharmacokinetics of AP after oral administration in rats; format: in vivo; details: for AUC(0-t) / Cmax / Tmax / half-life / AUC(0-inf): rat, plasma, po, 120 mg/kg, mean ± SD; for AUC(0-t) / Cmax / Tmax / half-life / AUC(0-inf) / Fr (%) relative oral bioavailability: AP 120 mg/kg oral gavage
Experimental: Control and ABX rats were orally administered a single dose of AP at 120 mg/kg. Blood samples (500 μL) were collected at predetermined time intervals (0, 5, 10, 20, 30, 40, 60, 90, 120, 180, 240, 360, and 480 min). In some cases, APS reductase inhibitor bromocriptine mesylate (20 mg/kg, p.o.) or Na2SO4 (200 mg/kg, p.o.) was given to rats 1 week before AP treatment.
The pharmacokinetic parameters of AP including peak time (Tmax), maximum concentration (Cmax), area under the curve from zero time to the last time point measured (AUC0-t), area under the curve from zero time to infinity (AUC0-∞), and elimination half-life (t1/2) were estimated using DAS 2.0 software (Shanghai, China). The relative oral bioavailability (Fr) of AP was calculated by the following equation: Fr(%)=AUC0−∞of ABX/Inhibitor/SO42−/D.piger/AUC0−∞of Control×100%
An ACQUITY^TM UPLC-MS/MS system equipped with an ACQUITY^TM UPLC BEH C18 Column (50 × 2.1 mm I.D., 1.7 μm, Waters, Milford, MA, USA) was utilized for the quantification of AP and APM as previously described.[47] Briefly, the detection samples (50 μL) were mixed with 50 μL of IS (50 ng/mL). AP and APM were extracted by 400 μL cold methanol. Supernatants were dried under nitrogen stream. Then, the residue was dissolved with 50% methanol in water, centrifuged for 30 min at 13,000 rpm, and 10 µL of the supernatant was subjected to UPLC-MS/MS analysis. The mobile phases consisted of eluent A (water) and eluent B (methanol) with a gradient elution as follows: 0–0.8 min, 10% B; 0.8–1.2 min, 10–90% B; 1.2–5.0 min, 90% B; 5.0–5.5 min, 90–10% B; 5.5–7.0 min, 10% B. The flow rate was 0.3 mL/min and the injection volume of all samples was 10 μL. The quantification of AP, APM and IS was performed by UPLC-MS/MS using an MRM method with the transitions of m/z 349.1→m/z 287.2 for AP, m/z 413.2→m/z 287.2 for APM, m/z 269→m/z 133 for IS.

[2] = test system: FXR downstream bile acid transporters; assay: Expression of FXR downstream bile acid transporters in liver (qPCR, Western blot); format: in vivo, mice; details: AP 200 mg/kg i.p.
Experimental: Total RNA from frozen livers of Vehicle, AP (200 mg/kg, i.p.), ANIT (50 mg/kg), and ANIT+AP (200 mg/kg, i.p.) groups was extracted using the Animal Total RNA Isolation Kit (FOREGENE, China). cDNA was synthesized using a Color Reverse Transcription Kit (EZBioscience, Roseville, CA, USA). qPCR was performed using SYBR green/Rox qPCR master mix (EZBioscience, Roseville, CA, USA), according to the manufacturer’s instruction. The expression of target genes was normalized to β-actin, and fold changes were calculated using 2^–ΔΔCT method. For bacterial identification, genomic DNA of fecal flora was isolated using the TIANamp Stool DNA Kit (TIANGEN, Beijing, China) and qPCR was performed. The relative abundance and expression of Desulfovibrio spp., D. piger and APS reductase were normalized to the amounts of total bacteria (16S). All primers were synthesized by Tsingke Biotechnology Co., Ltd. (Beijing, China) and were listed in Supplementary Table S1.
Liver tissue from Vehicle, AP (200 mg/kg, i.p.), ANIT (50 mg/kg), and ANIT+AP (200 mg/kg, i.p.) groups was homogenized in RIPA buffer (Thermo Scientific). […] The collected supernatant was quantified using BCA protein assay kit (Epizyme). […] To visualize the protein bands, the membrane was reacted with Immobilon Forte Western HRP (Millipore) substrate solution for 2 min and analyzed using Tanon5200 imager. […]

[3] = SD, rats, Control group (Table 1), n = 4
[4] = Sprague-Dawley (SD), rats, Control group (Table 2), n = 4
[5] = Sprague-Dawley (SD), rats, Inhibitor group (bromocriptine mesylate 20 mg/kg p.o. 1 week before), n = 4
[6] = Sprague-Dawley (SD), rats, SO4^2- group (Na2SO4 200 mg/kg p.o. 1 week before), n = 5
[7] = Sprague-Dawley, rats, Control group (Table 2), n = 4
[8] = Sprague-Dawley, rats, Inhibitor group (bromocriptine mesylate 20 mg/kg p.o. 1 week before), n = 4
[9] = Sprague-Dawley, rats, SO4^2- group (Na2SO4 200 mg/kg p.o. 1 week before), n = 5

In the case of C=C1CC[C@@H]2[C@](C)(CO)[C@H](O)CC[C@@]2(C)[C@@H]1C/C=C1/C(=O)OC[C@H]1O [AP, Andrographolide], the “enhancement in the relative oral bioavailability of AP” value ([1]; ABX-treated rats vs Control) is reported as 70.11% and 70%, the AUC(0-t) ([1]; SD, rats, ABX group, n = 4) is reported as 4430 ng·h/mL and the Cmax ([1]; SD, rats, ABX group, n = 4) is reported as 1330 ± 250 ng/mL. It also gave a Tmax ([1]; SD, rats, ABX group, n = 4) of 0.708 h, a half-life ([1]; SD, rats, ABX group, n = 4) of 2.31 ± 0.734 h and an AUC(0-t) [1, 3] of 2360 ng·h/mL. For the same compound, the Cmax [1, 3] was 690 ± 190 ng/mL, the Tmax [1, 3] was 0.833 h and the half-life [1, 3] was 3.07 ± 0.928 h. It also gave an AUC(0-inf) [1, 4] of 3690 ng·h/mL, an AUC(0-t) [1, 4] of 3440 ng·h/mL and an AUC(0-inf) [1, 5] of 8020 ng·h/mL. It also gave an AUC(0-t) [1, 5] of 7520 ng·h/mL, an AUC(0-inf) [1, 6] of 1870 ng·h/mL and an AUC(0-t) [1, 6] of 1360 ng·h/mL. The half-life [1, 6] was 4.38 ± 3.23 h, the AUC(0-inf) ([1]; Sprague-Dawley, rats, ABX group, n = 4) was 5110 ng·h/mL and the AUC(0-inf) ([1]; Sprague-Dawley, rats, Control group (Table 1), n = 4) was 3000 ng·h/mL. For the same compound, the Cmax [1, 7] was 1420 ± 710 ng/mL, the Tmax [1, 7] was 0.5 h and the half-life [1, 7] was 2.04 ± 0.397 h. It also gave a Cmax [1, 8] of 2750 ± 710 ng/mL, a Tmax [1, 8] of 0.583 h and a half-life [1, 8] of 1.82 ± 0.589 h. The Cmax [1, 9] was 490 ± 190 ng/mL, the Tmax [1, 9] was 0.533 h and the “Fr (%) relative oral bioavailability” value ([1]; rats, ABX group vs Control (AUC0-∞ ratio)) was 170.11%. The “Fr (%) relative oral bioavailability” value ([1]; rats, Inhibitor group vs Control (AUC0-∞ ratio)) was 217.24%, the “Fr (%) relative oral bioavailability” value ([1]; rats, SO4^2- group vs Control (AUC0-∞ ratio)) was 50.70% and the “increase in AP bioavailability” value ([1]; rats, inhibition of APS reductase by bromocriptine mesylate) was 117.24% and 117%. The “reduction in AP bioavailability” value ([1]; rats, treatment of Na2SO4) was 49.30% and the “expression of FXR downstream bile acid transporters (Mrp2, Mrp3, Mrp4, Oatp1, and Ntcp, except for Bsep, Ost-α and Ost-β)” value [2] was “heightened the expression”.
